Where a name gives a salt, the structure may show the parent alone. Read-outs that look alike come from different tables or passages of the source.
Columns and labels:
Experiment in all cases: AK assay 384-well format, Prestwick library screening
P. aeruginosa = assay type: cell-based, Pseudomonas aeruginosa; conditions: 50 μM final drug concentration; for fold induction at 50 µM: Pseudomonas aeruginosa, 3 h
E. faecium = assay type: cell-based, Enterococcus faecium; conditions: 50 μM final drug concentration; for fold induction at 50 µM: Enterococcus faecium, 3 h
E. cloacae = assay type: cell-based, Enterobacter cloacae; conditions: 50 μM final drug concentration; for fold induction at 50 µM: Enterobacter cloacae, 3 h
E. coli = assay type: cell-based, Escherichia coli; conditions: 50 μM final drug concentration; for fold induction at 50 µM: Escherichia coli, 3 h
[1] = tested on: S. aureus strain USA300-0114; assay type: cell-based, Staphylococcus aureus; conditions: 50 μM final drug concentration; for fold induction at 50 µM: Staphylococcus aureus, USA300, 3 h
[2] = tested on: A. baumannii strain 98-37-09; assay type: cell-based, Acinetobacter baumannii; conditions: 50 μM final drug concentration; for fold induction at 50 µM: Acinetobacter baumannii, 983709, 3 h
K. pneumoniae = assay type: cell-based, Klebsiella pneumoniae; conditions: 50 μM final drug concentration; for fold induction at 50 µM: Klebsiella pneumoniae, 3 h
[3] = planktonic P. aeruginosa, positive cutoff 3-fold increase, read-out: AK-based Prestwick library screening result, P. aeruginosa (fold increase in extracellular AK activity)
[4] = planktonic E. faecium, positive cutoff 3-fold increase, read-out: AK-based Prestwick library screening result, E. faecium (fold increase in extracellular AK activity)
[5] = planktonic E. cloacae, positive cutoff 3-fold increase, read-out: AK-based Prestwick library screening result, E. cloacae (fold increase in extracellular AK activity)
[6] = planktonic E. coli, positive cutoff 3-fold increase, read-out: AK-based Prestwick library screening result, E. coli (fold increase in extracellular AK activity)
[7] = planktonic S. aureus, positive cutoff 3-fold increase, read-out: AK-based Prestwick library screening result, S. aureus (fold increase in extracellular AK activity)
[8] = planktonic A. baumannii, positive cutoff 3-fold increase, read-out: AK-based Prestwick library screening result, A. baumannii (fold increase in extracellular AK activity)
[9] = planktonic K. pneumoniae, positive cutoff 3-fold increase, read-out: AK-based Prestwick library screening result, K. pneumoniae (fold increase in extracellular AK activity)
[10] = 384-well format, cutoff for positive-scoring molecules 3-fold increase, read-out: AK-based Prestwick Library Screening Results, P. aeruginosa (increase in extracellular AK activity)
[11] = 384-well format, cutoff for positive-scoring molecules 3-fold increase, read-out: AK-based Prestwick Library Screening Results, E. faecium (increase in extracellular AK activity)
[12] = 384-well format, cutoff for positive-scoring molecules 3-fold increase, read-out: AK-based Prestwick Library Screening Results, E. cloacae (increase in extracellular AK activity)
[13] = 384-well format, cutoff for positive-scoring molecules 3-fold increase, read-out: AK-based Prestwick Library Screening Results, E. coli (increase in extracellular AK activity)
[14] = 384-well format, cutoff for positive-scoring molecules 3-fold increase, read-out: AK-based Prestwick Library Screening Results, S. aureus (increase in extracellular AK activity)
[15] = 384-well format, cutoff for positive-scoring molecules 3-fold increase, read-out: AK-based Prestwick Library Screening Results, A. baumannii (increase in extracellular AK activity)
[16] = 384-well format, cutoff for positive-scoring molecules 3-fold increase, read-out: AK-based Prestwick Library Screening Results, K. pneumoniae (increase in extracellular AK activity)
[17] = planktonic, cutoff for positive-scoring molecules 3-fold increase
[18] = planktonic, cutoff for positive 3-fold increase
[19] = planktonic P. aeruginosa, 384-well, cutoff for positive-scoring molecules 3-fold increase, read-out: AK-based Prestwick Library Screening Results: P. aeruginosa (increase in extracellular AK activity)
[20] = planktonic E. faecium, 384-well, cutoff for positive-scoring molecules 3-fold increase, read-out: AK-based Prestwick Library Screening Results: E. faecium (increase in extracellular AK activity)
[21] = planktonic E. cloacae, 384-well, cutoff for positive-scoring molecules 3-fold increase, read-out: AK-based Prestwick Library Screening Results: E. cloacae (increase in extracellular AK activity)
[22] = planktonic E. coli, 384-well, cutoff for positive-scoring molecules 3-fold increase, read-out: AK-based Prestwick Library Screening Results: E. coli (increase in extracellular AK activity)
[23] = planktonic S. aureus, 384-well, cutoff for positive-scoring molecules 3-fold increase, read-out: AK-based Prestwick Library Screening Results: S. aureus (increase in extracellular AK activity)
[24] = planktonic A. baumannii, 384-well, cutoff for positive-scoring molecules 3-fold increase, read-out: AK-based Prestwick Library Screening Results: A. baumannii (increase in extracellular AK activity)
[25] = planktonic K. pneumoniae, 384-well, cutoff for positive-scoring molecules 3-fold increase, read-out: AK-based Prestwick Library Screening Results: K. pneumoniae (increase in extracellular AK activity)
[26] = cutoff for positive-scoring molecules 3-fold increase

SMILES: Cc1nccn1CC1CCc2c(c3ccccc3n2C)C1=O (centres unmarked) [Ondansetron Hydrochloride]
- fold induction at 50 µM (P. aeruginosa; [3]): 0.7
- fold induction at 50 µM (E. faecium; [4]): 1.1
- fold induction at 50 µM (E. cloacae; [5]): 0.8
- fold induction at 50 µM (E. coli; [6]): 0.7
- fold induction at 50 µM [1, 7]: 0.6
- fold induction at 50 µM [2, 8]: 0.7
- fold induction at 50 µM (K. pneumoniae; [9]): 0.6

SMILES: Cc1ncc([N+](=O)[O-])n1CC(O)CCl (centres unmarked) [Ornidazole]
- fold induction at 50 µM (P. aeruginosa; [10]): 0.6
- fold induction at 50 µM (E. faecium; [11]): 0.9
- fold induction at 50 µM (E. cloacae; [12]): 0.6
- fold induction at 50 µM (E. coli; [13]): 0.6
- fold induction at 50 µM [1, 14]: 0.5
- fold induction at 50 µM [2, 15]: 0.6
- fold induction at 50 µM (K. pneumoniae; [16]): 0.5

SMILES: CCN(CC)CCc1nc(-c2ccccc2)no1.O=C(O)CC(O)(CC(=O)O)C(=O)O [Oxalamine citrate salt]
- AK-based Prestwick Library Screening Results, P. aeruginosa (fold increase in extracellular AK activity) (P. aeruginosa; [17]): 0.9
- AK-based Prestwick Library Screening Results, E. faecium (fold increase in extracellular AK activity) (E. faecium; [17]): 0.8
- AK-based Prestwick Library Screening Results, E. cloacae (fold increase in extracellular AK activity) (E. cloacae; [17]): 1.2
- AK-based Prestwick Library Screening Results, E. coli (fold increase in extracellular AK activity) (E. coli; [17]): 0.9
- AK-based Prestwick Library Screening Results, S. aureus (fold increase in extracellular AK activity) [1, 17]: 0.8
- AK-based Prestwick Library Screening Results, A. baumannii (fold increase in extracellular AK activity) [2, 17]: 0.8
- AK-based Prestwick Library Screening Results, K. pneumoniae (fold increase in extracellular AK activity) (K. pneumoniae; [17]): 0.7

SMILES: CN1CCCN=C1/C=C/c1cccc(O)c1.O=C(O)c1cc2ccccc2c(Cc2c(O)c(C(=O)O)cc3ccccc23)c1O [Oxantel pamoate]
- AK-based Prestwick Library Screening Results, P. aeruginosa (fold increase in extracellular AK activity) (P. aeruginosa; [18]): 1.0
- AK-based Prestwick Library Screening Results, E. faecium (fold increase in extracellular AK activity) (E. faecium; [18]): 1.0
- AK-based Prestwick Library Screening Results, E. cloacae (fold increase in extracellular AK activity) (E. cloacae; [18]): 1.8
- AK-based Prestwick Library Screening Results, E. coli (fold increase in extracellular AK activity) (E. coli; [18]): 1.1
- AK-based Prestwick Library Screening Results, S. aureus (fold increase in extracellular AK activity) [1, 18]: 1.3
- AK-based Prestwick Library Screening Results, A. baumannii (fold increase in extracellular AK activity) [2, 18]: 1.1
- AK-based Prestwick Library Screening Results, K. pneumoniae (fold increase in extracellular AK activity) (K. pneumoniae; [18]): 1.0

SMILES: O=C(O)CCc1nc(-c2ccccc2)c(-c2ccccc2)o1 [Oxaprozin]
- fold induction at 50 µM (P. aeruginosa; [3]): 0.7
- fold induction at 50 µM (E. faecium; [4]): 1.1
- fold induction at 50 µM (E. cloacae; [5]): 0.9
- fold induction at 50 µM (E. coli; [6]): 0.6
- fold induction at 50 µM [1, 7]: 0.5
- fold induction at 50 µM [2, 8]: 0.7
- fold induction at 50 µM (K. pneumoniae; [9]): 0.6

SMILES: CN(C(=O)CN(CCO)CC(=O)N(C)C(C)(C)Cc1ccccc1)C(C)(C)Cc1ccccc1 [Oxethazaine]
- fold induction at 50 µM (P. aeruginosa; [19]): 1
- fold induction at 50 µM (E. faecium; [20]): 1
- fold induction at 50 µM (E. cloacae; [21]): 1.5
- fold induction at 50 µM (E. coli; [22]): 1.4
- fold induction at 50 µM [1, 23]: 1
- fold induction at 50 µM [2, 24]: 4.2
- fold induction at 50 µM (K. pneumoniae; [25]): 1.5

SMILES: CCn1cc(C(=O)O)c(=O)c2cc3c(cc21)OCO3 [Oxolinic acid]
- fold induction at 50 µM (P. aeruginosa; [10]): 1
- fold induction at 50 µM (E. faecium; [11]): 1.1
- fold induction at 50 µM (E. cloacae; [12]): 4.3
- fold induction at 50 µM (E. coli; [13]): 13.1
- fold induction at 50 µM [1, 14]: 1
- fold induction at 50 µM [2, 15]: 2.3
- fold induction at 50 µM (K. pneumoniae; [16]): 1.6

SMILES: C=CCOc1ccccc1OCC(O)CNC(C)C (centres unmarked) [Oxprenolol hydrochloride]
- fold induction at 50 µM (P. aeruginosa; [3]): 0.6
- fold induction at 50 µM (E. faecium; [4]): 0.9
- fold induction at 50 µM (E. cloacae; [5]): 0.9
- fold induction at 50 µM (E. coli; [6]): 0.7
- fold induction at 50 µM [1, 7]: 0.6
- fold induction at 50 µM [2, 8]: 0.6
- fold induction at 50 µM (K. pneumoniae; [9]): 0.6

SMILES: COc1ccc(C(=O)c2ccccc2)c(O)c1 [Oxybenzone]
- fold induction at 50 µM (P. aeruginosa; planktonic, cutoff for positive-scoring molecules 3-fold increase, read-out: AK-based Prestwick Library Screening Results, P. aeruginosa (fold increase in extracellular AK activity)): 0.5
- fold induction at 50 µM (E. faecium; planktonic, cutoff for positive-scoring molecules 3-fold increase, read-out: AK-based Prestwick Library Screening Results, E. faecium (fold increase in extracellular AK activity)): 0.7
- fold induction at 50 µM (E. cloacae; planktonic, cutoff for positive-scoring molecules 3-fold increase, read-out: AK-based Prestwick Library Screening Results, E. cloacae (fold increase in extracellular AK activity)): 0.6
- fold induction at 50 µM (E. coli; planktonic, cutoff for positive-scoring molecules 3-fold increase, read-out: AK-based Prestwick Library Screening Results, E. coli (fold increase in extracellular AK activity)): 0.5
- fold induction at 50 µM ([1]; planktonic, cutoff for positive-scoring molecules 3-fold increase, read-out: AK-based Prestwick Library Screening Results, S. aureus (fold increase in extracellular AK activity)): 0.4
- fold induction at 50 µM ([2]; planktonic, cutoff for positive-scoring molecules 3-fold increase, read-out: AK-based Prestwick Library Screening Results, A. baumannii (fold increase in extracellular AK activity)): 0.4
- fold induction at 50 µM (K. pneumoniae; planktonic, cutoff for positive-scoring molecules 3-fold increase, read-out: AK-based Prestwick Library Screening Results, K. pneumoniae (fold increase in extracellular AK activity)): 0.4

SMILES: CCN(CC)CC#CCOC(=O)C(O)(c1ccccc1)C1CCCCC1 (centres unmarked) [Oxybutynin chloride]
- fold induction at 50 µM (P. aeruginosa; [19]): 1
- fold induction at 50 µM (E. faecium; [20]): 1.1
- fold induction at 50 µM (E. cloacae; [21]): 1.6
- fold induction at 50 µM (E. coli; [22]): 1.4
- fold induction at 50 µM [1, 23]: 1.2
- fold induction at 50 µM [2, 24]: 1.1
- fold induction at 50 µM (K. pneumoniae; [25]): 0.9

SMILES: Cc1cc(C(C)(C)C)c(O)c(C)c1CC1=NCCN1 [Oxymetazoline hydrochloride]
- fold induction at 50 µM (P. aeruginosa; [19]): 1.2
- fold induction at 50 µM (E. faecium; [20]): 1
- fold induction at 50 µM (E. cloacae; [21]): 1.3
- fold induction at 50 µM (E. coli; [22]): 1.1
- fold induction at 50 µM [1, 23]: 1.1
- fold induction at 50 µM [2, 24]: 1.4
- fold induction at 50 µM (K. pneumoniae; [25]): 1.1

SMILES: CCCCC1C(=O)N(c2ccccc2)N(c2ccc(O)cc2)C1=O (centres unmarked) [Oxyphenbutazone]
- AK-based Prestwick Library Screening Results, P. aeruginosa (fold increase in extracellular AK activity) (P. aeruginosa; [26]): 0.5
- AK-based Prestwick Library Screening Results, E. faecium (fold increase in extracellular AK activity) (E. faecium; [26]): 0.9
- AK-based Prestwick Library Screening Results, E. cloacae (fold increase in extracellular AK activity) (E. cloacae; [26]): 0.5
- AK-based Prestwick Library Screening Results, E. coli (fold increase in extracellular AK activity) (E. coli; [26]): 0.5
- AK-based Prestwick Library Screening Results, S. aureus (fold increase in extracellular AK activity) [1, 26]: 0.4
- AK-based Prestwick Library Screening Results, A. baumannii (fold increase in extracellular AK activity) [2, 26]: 0.5
- AK-based Prestwick Library Screening Results, K. pneumoniae (fold increase in extracellular AK activity) (K. pneumoniae; [26]): 0.5

SMILES: CN(C)[C@@H]1C(O)=C(C(N)=O)C(=O)[C@@]2(O)C(O)=C3C(=O)c4c(O)cccc4[C@@](C)(O)[C@H]3[C@H](O)[C@@H]12 [Oxytetracycline dihydrate]
- fold induction at 50 µM (P. aeruginosa; [19]): 0.5
- fold induction at 50 µM (E. faecium; [20]): 0.9
- fold induction at 50 µM (E. cloacae; [21]): 1.1
- fold induction at 50 µM (E. coli; [22]): 1
- fold induction at 50 µM [1, 23]: 3.4
- fold induction at 50 µM [2, 24]: 5.3
- fold induction at 50 µM (K. pneumoniae; [25]): 0.2

SMILES: O=C(O)/C=C/c1ccc(Cn2ccnc2)cc1 [Ozagrel hydrochloride]
- fold induction at 50 µM (P. aeruginosa; [3]): 0.6
- fold induction at 50 µM (E. faecium; [4]): 0.9
- fold induction at 50 µM (E. cloacae; [5]): 0.9
- fold induction at 50 µM (E. coli; [6]): 0.6
- fold induction at 50 µM [1, 7]: 0.5
- fold induction at 50 µM [2, 8]: 0.7
- fold induction at 50 µM (K. pneumoniae; [9]): 0.5
